Results taken from patent publication US20250275991A1, “ORAL COMPLEMENT FACTOR D INHIBITORS” (BioCryst Pharmaceuticals, Inc, priority 2019, published 2025).
pIC50: −log10 of the molar value.

biological target: Factor D (Homo sapiens, UniProt P00746); assay: Factor D esterolytic assay; type: biochemical; settings: substrate Z-Lys-SBzl 1.29 mM, 100 mM HEPES, 500 mM NaCl, pH 7.5, 10% DMSO, tested a minimum of three times
Procedure: The IC50 value of a compound (i.e., the concentration of the compound that inhibits 50% of the enzymatic activity) was calculated according to the procedure reported in U.S. Pat. No. 6,653,340 B1, e.g., column 74 (incorporated by reference).
Specifically, the compounds were dissolved in a stock solution of DMSO at 10.0 or 100 mM. A portion of this stock solution was added to assay buffer in a final volume of 50 μL. Controls included buffer alone and enzyme solutions to which DMSO was added. Substrate was added to the reaction wells immediately or after incubation at room temperature. The reaction rates were measured spectrophotometrically by the generation of product at 405 nm for 600 sec. Background absorbance at 690 nm was measured and subtracted from the absorbance at 405 nm for each well.
The reaction rate for enzyme alone was compared to the rate of enzyme in the presence of inhibitor and the percent inhibition was calculated as shown below: […]
An established esterolytic assay for the measurement of Factor D activity and inhibition of Factor D activity was used (Kam, C. M.; McRae, B. J.; Harper, J. W.; Niemann, M. A.; Volanakis, J. E.; Powers, J. C. Human complement proteins D, C2, and B Active site mapping with peptide thioester substrates. J Biol. Chem. 1987, 262, 3444-3451). For this assay Z-Lys-SBzl, 1.29 mM (Kim, S.; Narayana, S. V. L; Volanakis, J. E. Mutational analysis of the substrate binding site of human complement Factor D. Biochemistry. 1994, 33, 14393-14399.) was used as the substrate for Factor D ([…]). Hydrolysis of this compound by Factor D liberated a free sulfhydryl group which is then reacted with 5,5′-dithiobis(2nitrobenzoic acid) producing an intense yellow color (Habeeb, A. F. S. A. Reaction of protein sulfhydryl groups with Ellman's Reagent. Methods in Enzymol. 1976, 25, 457-464). The assays were performed in 96 well microtiter plates and rates of hydrolysis were monitored at 405 nm on a Biotek Synergy H1 plate reader. Hydrolysis rates were reported as change in mOD/min. The assay was conducted in 100 mM HEPES, 500 mM NaCl, pH 7.5 containing 10% DMSO in a final volume of 50 μL per well.
An IC50, a compound concentration which inhibits 50% of the enzymatic activity, was calculated. Compounds in the examples were tested a minimum of three times.

Sequence of Factor D (P00746 26-253): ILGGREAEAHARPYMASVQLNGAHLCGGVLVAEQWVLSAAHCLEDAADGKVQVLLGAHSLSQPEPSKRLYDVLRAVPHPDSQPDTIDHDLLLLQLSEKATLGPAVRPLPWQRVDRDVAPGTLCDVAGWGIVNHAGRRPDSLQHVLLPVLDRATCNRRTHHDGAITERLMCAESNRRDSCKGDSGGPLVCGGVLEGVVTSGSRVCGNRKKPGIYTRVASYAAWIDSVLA

| SMILES | pIC50 |
| --- | --- |
| NCc1ccc(-c2nc(C(=O)Nc3ccccc3CC(=O)O)c3cccn3n2)cc1 [Compound 82g, 2-(2-(2-(4-(aminomethyl)phenyl)pyrrolo[2,1-f][1,2,4]triazine-4-carboxamido)phenyl)acetic acid] | < 5.00 |
| CCC(N)c1cc(-c2cc(COc3ccccc3CC(=O)O)cc3ccoc23)cs1 (stereo not drawn) [Compound 1j, 2-(2-((7-(5-(1-aminopropyl)thiophen-3-yl)benzofuran-5-yl)methoxy)phenyl)acetic acid] | 5.00 to 6.00 |
| CC(Oc1ccccc1CC(=O)O)c1cc(-c2cccc(CN)c2)c2occc2c1 (single isomer, unassigned; (+)) [Compound 77f, (+)-2-(2-(1-(7-(3-(aminomethyl)phenyl)benzofuran-5-yl)ethoxy)phenyl)acetic acid] | > 6.00 |
| NCc1cccc(-c2cc(COc3cc(C(F)(F)F)ccc3CC(=O)O)cc3ccoc23)c1F [Compound 58b, 2-(2-((7-(3-(aminomethyl)-2-fluorophenyl)benzofuran-5-yl)methoxy)-4-(trifluoromethyl)phenyl)acetic acid] | > 6.00 |
| COCOc1c(COc2ccccc2CC(=O)O)cc(-c2cccc(CN)c2)c2occc12 [Compound 81h, 2-(2-((7-(3-(aminomethyl)phenyl)-4-(methoxymethoxy)benzofuran-5-yl)methoxy)phenyl)acetic acid] | > 6.00 |
| Cc1ccc(CC(=O)O)c(OCc2cc(-c3cccc(CN)c3)c3occ(F)c3c2)c1 [Compound 49d, 2-(2-((7-(3-(aminomethyl)phenyl)-3-fluorobenzofuran-5-yl)methoxy)-4-methylphenyl)acetic acid] | > 6.00 |
| Cc1ccc(CC(=O)O)c(OCc2cc(-c3ccnc(CN)c3)c3occc3c2)c1C [Compound 22h, 2-(2-((7-(2-(aminomethyl)pyridin-4-yl)benzofuran-5-yl)methoxy)-3,4-dimethylphenyl)acetic acid] | > 6.00 |
| COc1ccc(CC(=O)O)c(OCc2cc(-c3cccc(CN)c3F)c3occc3c2F)c1 [Compound 42e, 2-(2-((7-(3-(aminomethyl)-2-fluorophenyl)-4-fluorobenzofuran-5-yl)methoxy)-4-methoxyphenyl)acetic acid] | > 6.00 |
| NCc1cccc(-c2cc(COc3ccccc3CC(=O)O)cc3c(F)coc23)c1F [Compound 45b, 2-(2-((7-(3-(aminomethyl)-2-fluorophenyl)-3-fluorobenzofuran-5-yl)methoxy)phenyl)acetic acid] | > 6.00 |
| NCc1cccc(-c2cc(C(=O)Nc3ccccc3CC(=O)O)cc3c2ccn3-c2ccccc2)c1 [Compound 71e, 2-(2-(4-(3-(aminomethyl)phenyl)-1-phenyl-1H-indole-6-carboxamido)phenyl)acetic acid] | > 6.00 |
| CC(=O)c1ccc(CC(=O)O)c(OCc2cc(-c3cccc(CN)c3)c3occc3c2F)c1 [Compound 48g, 2-(4-acetyl-2-((7-(3-(aminomethyl)phenyl)-4-fluorobenzofuran-5-yl)methoxy)phenyl)acetic acid] | > 6.00 |
| CCOC(=O)NC(C)c1ccc(CC(=O)O)c(OCc2cc(-c3cccc(CN)c3)c3occc3c2)c1 (single isomer, unassigned; (+)) [Compound 54g, (+)-2-(2-((7-(3-(aminomethyl)phenyl)benzofuran-5-yl)methoxy)-4-(1-(ethoxycarbonylamino)ethyl)phenyl)acetic acid] | > 6.00 |
| CC(C)C(N)C(=O)OCc1cc2cc(COc3ccccc3CC(=O)O)cc(-c3cccc(CN)c3)c2o1 (stereo not drawn) [Compound 24b, 2-(2-((2-(((2-amino-3-methylbutanoyl)oxy)methyl)-7-(3-(aminomethyl)phenyl)benzofuran-5-yl)methoxy)phenyl)acetic acid] | > 6.00 |
| CCOC(=O)NC(C)c1ccc(CC(=O)O)c(OCc2cc(-c3cccc(CN)c3)c3occc3c2)c1 (single isomer, unassigned; (-)) [Compound 55e, (−)-2-(2-((7-(3-(aminomethyl)phenyl)benzofuran-5-yl)methoxy)-4-(1-((ethoxycarbonyl)amino)ethyl)phenyl)acetic acid] | > 6.00 |
| CC(O)c1ccc(CC(=O)O)c(OCc2cc(-c3cccc(CN)c3)c3occc3c2)c1 (stereo not drawn) [Compound 72e, 2-(2-((7-(3-(aminomethyl)phenyl)benzofuran-5-yl)methoxy)-4-(1-hydroxyethyl)phenyl)acetic acid] | > 6.00 |
| CC(C)C(=O)Nc1ccc(CC(=O)O)c(OCc2cc(-c3cccc(CN)c3)c3occc3c2)c1 [Compound 70f] | > 6.00 |
| NCc1cccc(-c2cc(COc3ccc(F)cc3CC(=O)O)cc3cc(F)oc23)c1 [Compound 16f, 2-(2-((7-(3-(aminomethyl)phenyl)-2-fluorobenzofuran-5-yl)methoxy)-5-fluorophenyl)acetic acid] | > 6.00 |
| CC(N)c1ccc(CC(=O)O)c(OCc2cc(-c3cccc(CN)c3)c3occc3c2)c1 (single isomer, unassigned; (+)) [Compound 60a, (+)-2-(4-(1-aminoethyl)-2-((7-(3-(aminomethyl)phenyl)benzofuran-5-yl)methoxy)phenyl)acetic acid] | > 6.00 |
| NCc1cc(-c2cc(COc3cc(C(F)(F)F)ccc3CC(=O)O)cc3ccoc23)ccn1 [Compound 57b, 2-(2-((7-(2-(aminomethyl)pyridin-4-yl)benzofuran-5-yl)methoxy)-4-(trifluoromethyl)phenyl)acetic acid] | > 6.00 |
| CC(C)(C)OC(=O)Cc1ccccc1OCc1cc(-c2ccnc(CN)c2F)c2occc2c1 [Compound 39e, tert-butyl 2-(2-((7-(2-(aminomethyl)-3-fluoropyridin-4-yl)benzofuran-5-yl)methoxy)phenyl)acetate] | 5.00 to 6.00 |

Other lines, results leading:

| pIC50 | SMILES |
| --- | --- |
| > 6.00 | NCc1cccc(-c2cc(COc3ccccc3C(NC(=O)C3CC3)C(=O)O)cc3ccoc23)c1 (single isomer, unassigned; (+)) [Compound 52f, (+)-2-(2-((7-(3-(aminomethyl)phenyl)benzofuran-5-yl)methoxy)phenyl)-2-(cyclopropanecarboxamido)acetic acid] |
| > 6.00 | NCc1csc(-c2cc(COc3ccccc3CC(=O)O)cc3ccoc23)n1 [Compound 6e, 2-(2-((7-(4-(aminomethyl)thiazol-2-yl)benzofuran-5-yl)methoxy)phenyl)acetic acid] |
| > 6.00 | CCC(C(=O)O)c1ccccc1OCc1cc(-c2ccnc(CN)c2F)c2occc2c1 (stereo not drawn) [Compound 38c, 2-(2-((7-(2-(aminomethyl)-3-fluoropyridin-4-yl)benzofuran-5-yl)methoxy)phenyl)butanoic acid] |
| > 6.00 | CCNCc1nccc(-c2cc(COc3ccccc3CC(=O)O)cc3ccoc23)c1F [Compound 37d, 2-(2-((7-(2-((ethylamino)methyl)-3-fluoropyridin-4-yl)benzofuran-5-yl)methoxy)phenyl)acetic acid] |
| > 6.00 | CC(C)OC(=O)Nc1ccc(CC(=O)O)c(OCc2cc(-c3cccc(CN)c3)c3occc3c2)c1 [Compound 20h, 2-(2-((7-(3-(aminomethyl)phenyl)benzofuran-5-yl)methoxy)-4-((isopropoxycarbonyl)amino)phenyl)acetic acid] |
| > 6.00 | NCc1cccc(-c2cc(C(Oc3ccccc3CC(=O)O)C(=O)O)cc3ccoc23)c1 (stereo not drawn) [Compound 35e, 2-(7-(3-(aminomethyl)phenyl)benzofuran-5-yl)-2-(2-(carboxymethyl)phenoxy)acetic acid] |
| > 6.00 | O=CNCc1nccc(-c2cc(COc3ccccc3CC(=O)O)cc3ccoc23)c1F [Compound 36f, 2-(2-((7-(3-fluoro-2-(formamidomethyl)pyridin-4-yl)benzofuran-5-yl)methoxy)phenyl)acetic acid] |
| > 6.00 | NCc1cccc(-c2cc(COc3ccccc3CC(=O)O)c(OCC3CCCO3)c3ccoc23)c1 (stereo not drawn) [Compound 69g, 2-(2-((7-(3-(aminomethyl)phenyl)-4-((tetrahydrofuran-2-yl)methoxy)benzofuran-5-yl)methoxy)phenyl)acetic acid] |
| > 6.00 | CCc1ccc(CC(=O)O)c(OCc2cc(-c3ccnc(CN)c3F)c3oc(F)cc3c2)c1 [Compound 59i, 2-(2-((7-(2-(aminomethyl)-3-fluoropyridin-4-yl)-2-fluorobenzofuran-5-yl)methoxy)-4-ethylphenyl)acetic acid] |
| > 6.00 | COc1ccc(CC(=O)O)c(OCc2cc(-c3cccc(C(N)CF)c3)c3occc3c2)c1 (single isomer, unassigned; (+)) [Compound 14k, (+)-2-(2-((7-(3-(1-amino-2-fluoroethyl)phenyl)benzofuran-5-yl)methoxy)-4-methoxyphenyl)acetic acid] |
